According to patent US10034886B2, “GLP-1 receptor modulators” (Celgene International II SÀRL, priority 2014, dated 2018):

The compounds below were run against T1, GLP-1R (Homo sapiens, UniProt P43220) (assay: EC20 GLP-1(9-36) PAM cAMP assay: dose response of compound in the presence of fixed concentration of GLP-1(9-36)). Details: GLP-1R CRE-bla CHO-K1 cells, compound dose response with fixed concentration of GLP-1(9-36), read-out: EC20 GLP-1(9-36) PAM EC50.
T1 construct: host or cells: GLP-1R CRE-bla CHO-K1 cells
Assay type: cell-based
Summary of the method: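 GLP-1R CRE-bla CHO-K1 cells treated 30 min at 37 °C with 12-point compound dose response plus fixed EC20 GLP-1(9-36), with IBMX, in HBSS/HEPES/0.1% BSA pH 7.4. Total cAMP measured by luminescent detection against standard curve; EC50 and Emax from non-linear regression.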

T1 sequence (P43220 24-463): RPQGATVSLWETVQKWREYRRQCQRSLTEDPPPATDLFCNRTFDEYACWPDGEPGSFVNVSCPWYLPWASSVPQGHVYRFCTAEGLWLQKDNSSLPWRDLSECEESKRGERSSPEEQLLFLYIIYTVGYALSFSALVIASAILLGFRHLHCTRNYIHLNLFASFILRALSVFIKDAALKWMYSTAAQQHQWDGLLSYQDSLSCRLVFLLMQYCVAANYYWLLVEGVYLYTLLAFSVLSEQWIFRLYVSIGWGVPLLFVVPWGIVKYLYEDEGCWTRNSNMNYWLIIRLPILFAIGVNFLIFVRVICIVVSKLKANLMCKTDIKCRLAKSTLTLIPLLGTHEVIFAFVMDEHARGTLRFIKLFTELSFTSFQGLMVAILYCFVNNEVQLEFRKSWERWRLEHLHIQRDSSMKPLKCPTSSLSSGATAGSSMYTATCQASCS
T1 sequence (P01275 100-127 partner limits assumed): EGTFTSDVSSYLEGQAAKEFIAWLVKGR

EC50	SMILES
800 to 2500 nM	CCCCCc1ccc(-c2ccc(-c3cnc(-c4ccc(C[C@H](NC(=O)c5ccc(C(C)(C)C)s5)C(=O)N[C@H](C)C(=O)O)cc4)nc3)cc2)cc1 [Compound 1308]
< 800 nM	C[C@@H](NC(=O)[C@H](Cc1ccc(-c2ncc(-c3ccc(-c4ccc(Br)cc4)cc3)cn2)cc1)NC(=O)c1ccc(C(C)(C)C)s1)C(=O)O [Compound 1293]
800 to 2500 nM	CCCc1ccc(C2CCCN(c3cnc(-c4ccc(C[C@H](NC(=O)c5ccc(C(C)(C)C)s5)C(=O)N5CC(C(=O)O)C5)cc4)nc3)CC2)cc1 (stereo partly shown) [Compound 1507]
800 to 2500 nM	CCC[C@H]1CC[C@H](C2CCN(c3cnc(-c4ccc(C[C@H](NC(=O)c5ccc(C(C)(C)C)s5)C(=O)N[C@H](CC(C)C)C(=O)O)cc4)nc3)CC2)CC1 [Compound 1462]
< 800 nM	CCC[C@H]1CC[C@H](C2CCN(c3cnc(-c4ccc(C[C@H](NC(=O)c5ccc(OC(C)(C)C)cc5)C(=O)N5CC(C(=O)O)C5)cc4)nc3)CC2)CC1 [Compound 1524]
800 to 2500 nM	CCCOc1ccc(C(=O)N[C@@H](Cc2ccc(-c3ncc(-c4ccc([C@H]5CC[C@H](CC)CC5)cc4)cn3)cc2)C(=O)O)cc1 [Compound 1377]
2500 to 5000 nM	CC[C@H]1CC[C@H](c2ccc(-c3cnc(-c4ccc(C[C@H](NC(=O)c5ccc(C(C)(C)C)s5)C(=O)O)cc4)nn3)cc2)CC1 [Compound 1336, (S)-2-(5-(tert-butyl)thiophene-2-carboxamido)-3-(4-(6-(4-((1r,4r)-4-ethylcyclohexyl)phenyl)-1,2,4-triazin-3-yl)phenyl)propanoic acid]
< 800 nM	CCC[C@H]1CC[C@H](C2CCN(c3cnc(-c4ccc(C[C@H](NC(=O)c5ccc(C6(C)CC6)cc5)C(=O)N5CC(C(=O)O)C5)cc4)nc3)CC2)CC1 [Compound 1519]
< 800 nM	CC(C)(C)c1ccc(C(=O)N[C@@H](Cc2ccc(-c3ncc(-c4ccc(-c5cccc(OC(F)(F)F)c5)cc4F)cn3)cc2)C(=O)N2CC(C(=O)O)C2)s1 [Compound 1215]
800 to 2500 nM	CCC[C@H]1CC[C@@H](N2CCN(c3cnc(-c4ccc(C[C@H](NC(=O)c5ccc(C(C)(C)C)s5)C(=O)N5CC(C(=O)O)C5)cc4)nc3)CC2)CC1 [Compound 1436]
800 to 2500 nM	CC(C)CCOc1ccc(-c2ccc(-c3cnc(-c4ccc(C[C@H](NC(=O)c5ccc(C(C)(C)C)s5)C(=O)N[C@H](C)C(=O)O)cc4)nc3)cc2)cc1 [Compound 1294]
800 to 2500 nM	C[C@@H](NC(=O)[C@H](Cc1ccc(-c2ncc(-c3ccc4c(c3)Cc3ccccc3-4)cn2)cc1)NC(=O)c1ccc(C(C)(C)C)s1)C(=O)O [Compound 1299]
< 800 nM	CCC[C@H]1CC[C@H](C2CCN(c3cnc(-c4ccc(C[C@H](NC(=O)c5ccc(C(C)(C)C)s5)C(=O)N[C@@H](CCCNC(=N)N)C(=O)O)cc4)nc3)CC2)CC1 [Compound 1465]
5000 to 10000 nM	CCCc1ccc(C2CCN(c3cnc(-c4ccc(C[C@H](NC(=O)c5ccc(C(C)(C)C)s5)C(=O)N5CC(C(=O)O)C5)cc4)nc3)CC2)nn1 [Compound 1501]
< 800 nM	C[C@@H](NC(=O)[C@H](Cc1ccc(-c2ncc(-c3ccc(C4CCC(C)(C)CC4)cc3)cn2)cc1)NC(=O)c1ccc(C(C)(C)C)s1)C(=O)O [Compound 1316]
2500 to 5000 nM	CCC[C@H]1CC[C@H](N2CCN(c3cnc(-c4ccc(CC(NC(=O)c5ccc(C(C)(C)C)s5)C(=O)N5CC(C(=O)O)C5)cc4)nc3)C(=O)C2)CC1 (stereo partly shown) [Compound 1420]
800 to 2500 nM	CCCCc1ccc(C2CN(c3cnc(-c4ccc(C[C@H](NC(=O)c5ccc(C(C)(C)C)s5)C(=O)N5CC(C(=O)O)C5)cc4)nc3)C2)cc1 [Compound 1503]
< 800 nM	CC[C@H]1CC[C@H](c2ccc(-c3cnc(-c4ccc(C[C@H](NC(=O)c5ccc(C(C)C)cc5)C(=O)O)cc4)nc3)cc2)CC1 [Compound 1387]
800 to 2500 nM	CCc1ccc(C(=O)N[C@@H](Cc2ccc(-c3ncc(-c4ccc(OCCCC(C)C)cc4)cn3)cc2)C(=O)N2CC(C(=O)O)C2)s1 [Compound 1241]
800 to 2500 nM	CCCc1ccc(C2CCN(c3cnc(-c4ccc(C[C@H](NC(=O)c5ccc(C(C)(C)C)s5)C(=O)N5CC(C(=O)O)C5)cc4)nc3)C2)cc1 (stereo partly shown) [Compound 1504]

Same assay, conditions: dose response of compound in presence of fixed concentration of GLP-1(9-36), GLP-1R CRE-bla CHO-K1 cells, read-out: EC20 GLP-1(9-36) PAM EC50

EC50	SMILES
800 to 2500 nM	CCCCCCCCOc1ccc(-c2cnc(-c3ccc(C[C@H](NC(=O)c4ccc(C(C)(C)C)cc4)C(=O)N[C@H](C)C(=O)O)cc3)nc2)cc1 [Compound 723]
800 to 2500 nM	CCCCCCCOc1ccc(-c2cnc(-c3ccc(C[C@H](NC(=O)c4ccc(C(C)(C)C)s4)C(=O)NC4CC(N)C4)cc3)nc2)cc1 (stereo partly shown) [Compound 603]
2500 to 5000 nM	CCC/C=C\CCOc1ccc(-c2cnc(-c3ccc(C[C@H](NC(=O)c4ccc(C(C)(C)C)cc4)C(=O)NCCC(=O)O)cc3)nc2)cc1 [Compound 715]
2500 to 5000 nM	CCCCCCCOc1ccc(-c2cnc(-c3ccc(C[C@H](NC(=O)c4cnc(C(C)(C)C)nc4)C(=O)N4CCC[C@H]4C(=O)O)cc3)nc2)cc1 [Compound 1078]
800 to 2500 nM	CC(C)(C)c1ccc(C(=O)N[C@@H](Cc2ccc(-c3ncc(-c4ccc(OCC5CCCCC5)cc4)cn3)cc2)C(=O)NC(C(=O)O)C(O)c2ccccc2)s1 (stereo partly shown) [Compound 936]
800 to 2500 nM	CCCCCCCOc1ccc(-c2cnc(-c3ccc(C[C@H](NC(=O)c4ccc(CC(C)C)s4)C(=O)N[C@H](C)C(=O)O)cc3)nc2)cc1 [Compound 813]
800 to 2500 nM	CCCOc1ccc(-c2cnc(-c3ccc(C[C@H](NC(=O)c4ccc(C(C)(C)C)s4)C(=O)N[C@H](C)C(=O)O)cc3)nc2)cc1 [Compound 732]
2500 to 5000 nM	C[C@@H](NC(=O)[C@H](Cc1ccc(-c2ncc(-c3ccc(Oc4ccccc4F)nc3)cn2)cc1)NC(=O)c1ccc(C(C)(C)C)s1)C(=O)O [Compound 1009]
800 to 2500 nM	CCCCCCCOc1ccc(-c2cnc(-c3ccc(C[C@H](NC(=O)c4ccc(C(C)(C)C)cc4)C(=O)NC(C)(C)C(=O)O)cc3)nc2)cc1 [Compound 409]
< 800 nM	CCCCCCCOc1ccc(-c2cnc(-c3ccc(CC(NC(=O)c4ccc(C(C)(C)C)s4)C(=O)N4CC(C(=O)O)C4)cc3)nc2)cc1 (stereo not shown) [Compound 431]
2500 to 5000 nM	CCCCOc1ccc(-c2cnc(-c3ccc(C[C@H](NC(=O)c4ccc(C(C)(C)C)s4)C(=O)N[C@H](C)C(=O)O)cc3)nc2)cc1F [Compound 1044]
< 800 nM	CCCCCCCOc1ccc(-c2cnc(-c3ccc(C[C@H](NC(=O)c4ccc(C(C)(C)C)s4)C(=O)N[C@@H](CC(=O)O)C(N)=O)cc3)nc2)cc1 [Compound 525]
800 to 2500 nM	CCCCCCCOc1ccc(-c2cnc(-c3ccc(CC(NC(=O)c4ccc(C(C)(C)C)s4)C(=O)Nc4ccc(C(=O)O)cc4)cc3)nc2)cc1 (stereo not shown) [Compound 442]
< 800 nM	CCCCCCCOc1ccc(-c2cnc(-c3ccc(C[C@H](NC(=O)c4ccc(C(C)(C)C)cc4)C(=O)N[C@@H](CO)C(=O)O)cc3)nc2)cc1 [Compound 418]
< 800 nM	CC(C)[C@H]1CC[C@@H](c2ccc(-c3cnc(-c4ccc(C[C@H](NC(=O)c5ccc(C(C)(C)C)s5)C(=O)N5CC(C(=O)O)C5)cc4)nc3)cc2)CC1 [Compound 1179]
800 to 2500 nM	CCCCCCCOc1ccc(-c2cnc(-c3ccc(C[C@H](NC(=O)c4cnn(C(C)(C)C)c4)C(=O)NC(C(=O)O)C(O)c4ccccc4)cc3)nc2)cc1 (stereo partly shown) [Compound 954]
2500 to 5000 nM	Cc1ccc(-c2cccc(-c3noc(-c4cnc(-c5ccc(C[C@H](NC(=O)c6ccc(C(C)(C)C)cc6)C(=O)NCCC(=O)O)cc5)nc4)n3)c2)cc1 [Compound 748]
< 800 nM	CCCCCCCOc1ccc(-c2cnc(-c3ccc(C[C@H](NC(=O)c4ccc(C(C)(C)C)s4)C(=O)N4CCC[C@H]4C(=O)O)cc3)nc2)cc1 [Compound 328, (S)-1-((S)-2-(5-(tert-butyl)thiophene-2-carboxamido)-3-(4-(5-(4-(heptyloxy)-phenyl)pyrimidin-2-yl)phenyl)propanoyl)pyrrolidine-2-carboxylic acid]
800 to 2500 nM	CCCCCCCOc1ccc(-c2cnc(-c3ccc(C[C@H](NC(=O)c4ccc(C(C)(C)C)cc4)C(=O)NC(Cc4ccc(Cl)cc4)C(=O)O)cc3)nc2)cc1 (stereo partly shown) [Compound 564]
800 to 2500 nM	CC(C)CCCOc1ccc(-c2cnc(-c3ccc(C[C@H](NC(=O)c4ccc(C(C)(C)C)cc4)C(=O)NCCC(=O)O)cc3)nc2)cc1 [Compound 458]
800 to 2500 nM	C[C@@H](NC(=O)[C@H](Cc1ccc(-c2ncc(-c3ccc(C(F)(F)F)cc3)cn2)cc1)NC(=O)c1ccc(C(C)(C)C)cc1)C(=O)O [Compound 728]
5000 to 10000 nM	CC(C)(C)c1ccc(C(=O)N[C@@H](Cc2ccc(-c3ncc(-c4ccc(C(F)(F)F)cc4)cn3)cc2)C(=O)N2CC(C(=O)O)C2)s1 [Compound 788]
800 to 2500 nM	CCCCCCCOc1ccc(-c2cnc(-c3ccc(C[C@H](NC(=O)c4ccc(C(C)(C)C)cc4)C(=O)N4C[C@H](OC(C)(C)C)C[C@H]4C(=O)O)cc3)nc2)cc1 [Compound 623]
2500 to 5000 nM	CC(C)(C)c1ccc(C(=O)N[C@@H](Cc2ccc(-c3ncc(-c4ccc(C#Cc5ccccc5)cc4)cn3)cc2)C(=O)NCCC(=O)O)cc1 [Compound 689]
800 to 2500 nM	CCCCCCCOc1ccc(-c2cnc(-c3ccc(C[C@H](NC(=O)c4ccc(CCC)s4)C(=O)N[C@H](C)C(=O)O)cc3)nc2)cc1 [Compound 840]
< 800 nM	CCCCCCCOc1ccc(-c2cnc(-c3ccc(C[C@H](NC(=O)c4ccc(C(C)(C)C)s4)C(=O)N[C@H](CC(=O)O)C(=O)NC)cc3)nc2)cc1 [Compound 630]
800 to 2500 nM	CCCCCCCOc1ccc(-c2cnc(-c3ccc(C[C@H](NC(=O)c4ccc(C(C)(C)C)s4)C(=O)NC4(C(=O)O)CC4)cc3)nc2)cc1 [Compound 604]
800 to 2500 nM	CCCCCCCOc1ccc(-c2cnc(-c3ccc(C[C@H](NC(=O)c4ccc(C(C)(C)C)s4)C(=O)NS(=O)(=O)CCOC)cc3)nc2)cc1 [Compound 435]
< 800 nM	CC[C@H]1CC[C@H](c2ccc(-c3cnc(-c4ccc(C[C@H](NC(=O)c5ccc(OC(C)C)cc5)C(=O)N5CC(C(=O)O)C5)cc4)nc3)cc2)CC1 [Compound 1160]
